We go through 3 compounds from US20060003936A1, “Method for modulating the production of a selected protein in vivo” (priority 2002, published 2006).

Series [1] relates to HCT-8, HCT-116 and C85 colorectal cancer cells transduced with SFG-DHFR/HSV-TK. In words: GCV sensitivity of transduced colon cancer cells. It is filed as cell-based, human. How it is done: (§1) Retrovirus-producing cell lines were generated by transfection of DHFR-HSV1-TK plasmid in parental GP+envAM12 cells. Transfection was performed three times at cell densities of 30%, 50% and 75% using Superfect (Qiagen, Chatsworth, Calif.) as described by the manufacturer. Clones of the retrovirus were selected in 150 nM TMTX. Viral titers were determined against NIH 3T3 cells. Retrovirus-producing AM12V cells were grown in medium without antifolate to a density of 60-80%; the day before infection, the mdeium was changed. Viral transduction was performed by infecting colon cancer cells plated 48 hours before infection in 10 cm dishes. Four single virus exporsures with the desired multiplicity of infection (moi), each of 6 hour duration, were carried out. For each single exposure, fresh AM12V supernatant was filtered through a 0.45 μm cellulose acetate filter and supplemented with polybrene (8 μg/ml). The 2-hour viral transduction was performedin 6 well plates.
(§2) The transduced cells were treated with varying amounts of TMTX (10, 100 and 1000 μM) and levels of fusion protein were detected by Western blotting using either an anti-HSV-TK antibody or an anti-human DHFR antibody.
Three colorectal cancer cells lines (HCT-8, HCT-116 and a cell line, C85, recently established from a patient with liver metastasis) were transduced with the SFG-DHFR/HSV-TK fusion vector of Example 1. […]

Series [2] relates to HCT-116 cells (116LT, 116HT). In words: GCV and TMTX cytotoxicities on transduced HCT-116 cells. It is filed as cell-based, human. On the procedure:
FIGS. 7A-D show GCV sensitivty and TMTX resisatnce in parental, tranduced and TMTX exposed colon cancer cells of the HCT-116 and HCT-8 cells lines. Bulk transduction of HCT-116 and HCT-8 was carried out with an moi of 30 for 24 hours or an moi of 2.5 for 2 hours to produce cell lines 116HT and 116LT, and 8HT and 8LT, respectively. Successful gene transfer and transgene expression was confirmed by PCR and Western blotting. […] Infection of 8LT was not detectable with the assay used.
GCV amd TMTX cytotoxicities were measured on the transduced cells. […] (FIGS. 7A and C). This finding correlates with observed levels of fusion protein expression in these cells.

In series [3] the test system is HCT-8 cells (8LT, 8HT, 8LT-CT). In words: GCV and TMTX cytotoxicities on transduced HCT-8 cells. It is filed as cell-based, human. On the procedure: Bulk transduction of HCT-116 and HCT-8 was carried out with an moi of 30 for 24 hours or an moi of 2.5 for 2 hours to produce cell lines 116HT and 116LT, and 8HT and 8LT, respectively.
GCV amd TMTX cytotoxicities were measured on the transduced cells.

Series [4] addresses T1, DHFR-HSV1 TK fusion protein (Homo sapiens, UniProt P00374, F32S/L23F).
T1 construct: HSV1 thymidine kinase (fusion partner); expressed in transfected cells; host or cells: HCT-8, HCT-116 and C85 human colorectal cancer cells, retrovirally transduced with SFG-DHFR/HSV-TK
The experiment in a line: Western blot of DHFR-HSV-TK fusion protein in transduced colon cancer cells treated with antifolate. It is filed as cell-based. On the procedure:
as §1, §2
Three colorectal cancer cells lines (HCT-8, HCT-116 and a cell line, C85, recently established from a patient with liver metastasis) were transduced with the SFG-DHFR/HSV-TK fusion vector of Example 1. Transduction was verified by PCR using transgene specific primers and elevation of DHFR-HSVTK mRNA and protein expression.
A general note: Immunoblotting shows a protein as a band on a membrane.

In series [5] the test system is DHFR-HSV1 TK fusion protein. In words: DHFR-HSV1 TK fusion protein level in tumor tissue of treated rats. The note with it: rats with flank tumors; 10 mg/kg once daily for three days or single 100 mg/kg; vs water-treated controls. It counts as in vivo, rat. How it is done: Rats bearing flank tumors were treated with 10 mg/kg of TMTX for three days (once daily), or with a single high dose of 100 mg/kg. The levels of DHFR-HSV1 TK fusion protein in the tumor tissue of antifolate treated rats, as well as in water-treated controls were analyzed. […] The mean increase was at least 2-fold.

The test system of series [6] is tumors derived from 8LT-CT cells. The experiment in a line: PET imaging of 124I-FIAU uptake in transduced tumors. It is filed as in vivo, rat. Conditions: three cycles of 10 mg/kg TMTX, three times daily for three days per cycle, 7 treated and 7 control rats. On the procedure: In a second set of experiments, tumors derived from 8LT-CT and parental HCT-8 cells were evaluated by in vivo imaging. Before the imaging, each animal received three cycles of 10 mg/kg of TMTX, three times daily for three days per cycle. Using PET and the tracer ^124I-FIAU an increase in tumor-signal intensity in TMTX-treated rats was observed.

The test system of series [7] is DHFR-EGFP fusion protein. In words: Fluorescence microscopy of EGFP expression in transfected GP+envAM12 cells. It counts as cell-based.
Experimental: Transfections of parental GP+envAM12 cells (Markowitz et al., Virology 167: 400-405 (1988)) with EGFP-containing SFG-plasmids was carried out using DOTAP transfecting reagent (N-{1-(2,3-dioleyloxy)propyl]-N,N,N,-trimethylammonium methyl sulfate, Roche Molecular Biochemicals). Cells transfected with EGFP-expressing vectors were cultrued for at least 12 days and subsequently sorted for EGFP-positive cells using an FACS Vantage SE cell sorter (Becton Dickinson). For fluorescence microscopy, these cells were grown in T25 flasks. Confluent cells were cultured in fresh media with or without TMTX. Fluorescent images of randomly selected areas of the monolayer were taken with a Zeiss Axlovert S100 microscope.

T1 sequence (P00374 other isoform, or with tags, fused parts or gaps L23F/F32S): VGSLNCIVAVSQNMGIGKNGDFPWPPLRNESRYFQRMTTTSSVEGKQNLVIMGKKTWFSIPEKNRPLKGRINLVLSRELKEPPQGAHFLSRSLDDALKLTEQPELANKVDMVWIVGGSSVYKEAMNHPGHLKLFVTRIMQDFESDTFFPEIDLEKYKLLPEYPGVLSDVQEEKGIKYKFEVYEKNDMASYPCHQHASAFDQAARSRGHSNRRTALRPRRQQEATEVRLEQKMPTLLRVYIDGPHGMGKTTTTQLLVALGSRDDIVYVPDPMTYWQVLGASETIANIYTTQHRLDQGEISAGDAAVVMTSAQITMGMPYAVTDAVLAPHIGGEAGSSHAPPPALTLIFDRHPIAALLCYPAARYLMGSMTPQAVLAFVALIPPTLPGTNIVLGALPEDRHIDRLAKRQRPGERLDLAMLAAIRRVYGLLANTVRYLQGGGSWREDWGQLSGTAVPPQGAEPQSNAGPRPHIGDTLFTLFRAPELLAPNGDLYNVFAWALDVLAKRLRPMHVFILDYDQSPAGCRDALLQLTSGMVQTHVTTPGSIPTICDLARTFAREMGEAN

On to `Nc1nc(O)c2ncn(COC(CO)CO)c2n1` [GCV, gancyclovir], for which, in series [1] (transduced cells after cycles of nine day exposures to increasing TMTX, vs non-transduced cells), the “increase in sensitivity to GCV” value came out at 250 fold. For the same compound, the “sensitivity to GCV” value in series [1] (transduced cells compared to unselected or untransduced cells) is on record as “increased sensitivity”. The “GCV cytotoxicity compared with parental cell line” value in series [2] (116HT cells) is recorded as “higher”; in series [2] (116LT cells) it was “moderate”. In addition, the GCV cytotoxicity entry in series [3] (8HT cells) is “GCV sensitivity”. In addition, the “increase in GCV sensitivity” value in series [3] (HCT-8 cells treated chronically with increasing concentrations of TMTX (8LT-CT)) stood at 250 fold.

For `COc1cc(NCc2ccc3nc(N)nc(N)c3c2C)cc(OC)c1OC` [TMTX, trimetrexate], the “induction of expression of the DHFR-HSV1 TK fusion protein” value in series [4] (concentration range 10^−2 to 1 μM) is “dose-dependent”. Also, the fusion protein levels entry in series [4] (high concentrations (1000 μM), without an increase in mRNA) is given as “transient increase in fusion protein levels”. Moreover, the “fusion protein expression (Western blot)” value in series [4] (transduced colon cancer cells, TMTX 10, 100 and 1000 μM, anti-HSV-TK or anti-human DHFR antibody) is given as “upregulation of fusion protein expression was observed”. In addition, the “TMTX resistance compared with parental cell line” value in series [2] (116HT cells) is reported as “higher”; in series [2] (116LT cells), “moderate”. Further, in series [3] (8HT cells), the TMTX cytotoxicity result was “TMTX resistance”. The “mean increase of DHFR-HSV1 TK fusion protein in tumor tissue” value in series [5] was “at least 2 fold”. Moreover, the “124I-FIAU accumulation in transduced tumor tissue vs untreated controls” value in series [6] is 2.6 fold. Moreover, the “expression of DHFR-EGFP fusion protein” value in series [7] (DHFR-EGFP fusion vector, 1 μM, durable at 24 and 48 hours) is “increased”. For the same compound, in series [7] (plasmids expressing DHFR and EGFP separated by IRES, or just EGFP), the “expression of EGFP” value is given as “not increased”.

On to `COc1cc([C@@H]2c3cc4c(cc3[C@@H](O[C@@H]3O[C@@H]5CO[C@@H](C)O[C@H]5[C@H](O)[C@H]3O)[C@H]3COC(=O)[C@H]23)OCO4)cc(OC)c1O` [etoposide], for which the “induction of the fusion protein” value in series [4] (treatment of cells, concentration not given) is “did not cause induction”.
